Where two headings read alike, the source gives them in different places. Ends that are not written are not given here.

The values that follow come from publication PMC9482650, “Quantitative fragmentomics allow affinity mapping of interactomes” (Nature Communications, 2022).

For one assay, the target named is T1, MAST2 PDZ (Homo sapiens, UniProt Q6P0Q8).
T1 sequence (Q6P0Q8 1104-1192 limits assumed): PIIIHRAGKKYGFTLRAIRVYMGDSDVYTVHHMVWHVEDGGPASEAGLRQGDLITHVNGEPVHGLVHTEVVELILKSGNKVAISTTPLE
In words: biochemical. It counts as binding.

For a further assay, the target named is DLG1_1 PDZ (Homo sapiens, UniProt Q12959). The assay is described as follows: Holdup assay. It counts as binding.
The next assay deals with T2, TX1BP3 PDZ (Homo sapiens, UniProt O14907).
T2 sequence (O14907 15-112 limits assumed): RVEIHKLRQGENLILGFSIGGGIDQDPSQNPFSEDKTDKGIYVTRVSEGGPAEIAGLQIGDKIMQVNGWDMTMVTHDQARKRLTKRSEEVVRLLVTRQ
The assay is described as follows: Holdup assay. It counts as binding.

Another assay deals with T3, SCRIB2 PDZ (Homo sapiens, UniProt Q14160).
T3 sequence (Q14160 862-950 limits assumed): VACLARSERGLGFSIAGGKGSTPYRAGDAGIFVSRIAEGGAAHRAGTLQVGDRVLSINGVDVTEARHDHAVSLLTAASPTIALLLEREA
In words: Holdup assay. It counts as binding.

Another assay concerns the target SNX27 PDZ (Homo sapiens, UniProt Q96L92). The assay is described as follows: Holdup assay. It counts as binding.
Another assay deals with SCRIB_1 PDZ (Homo sapiens, UniProt Q14160). In words: Holdup assay. It counts as binding.
For another assay, the target named is DLG1_2 PDZ (Homo sapiens, UniProt Q12959). In words: Holdup assay. It counts as binding.
For a further assay, the target named is Htra2. The following applies: SPR; ref Murwantoko et al 2004; cited from earlier work. An excerpt: (§1) Supplement 41467_2022_33018_MOESM4_ESM.xlsx, sheet "reference DMI interactome" | column: Affinity (mM); pKd, measured in literature
Another assay concerns the target Htra1. The following applies: SPR; ref Murwantoko et al 2004; cited from earlier work.
Excerpt: as §1

A further assay concerns the target T4, SYNJ2BP PDZ (Homo sapiens, UniProt P57105).
T4 sequence (P57105 13-100 limits assumed): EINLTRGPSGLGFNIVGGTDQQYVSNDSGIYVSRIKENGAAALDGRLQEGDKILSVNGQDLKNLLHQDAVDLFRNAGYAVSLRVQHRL
The assay is described as follows: Holdup assay. It counts as binding.

Another assay concerns HEK293T cells. The assay is described as follows: Label-free MS proteome of stable cell lines expressing HPV16 E6 or E6ΔPBM. Particulars: protein level. It counts as cell-based, human. The essentials:
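Confluent HEK293T lysates in HEPES-KOH pH 7.5, 1% Triton X-100 buffer, TCA-precipitated, reduced, alkylated, Lys-C then trypsin digested. nanoLC (90 min gradient) on LTQ-Orbitrap Elite, TOP20 CID data-dependent acquisition; SequestHT search of human SwissProt, 1% FDR. Label-free quantification by peptide XIC intensity, technical triplicates.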

Where [1] appears, read: holdup affinity of the PBM peptide of the named protein, sheet PBMcomplexome, lower sub-table, 3.5 appears to be the floor for no detectable binding, read-out: affinity of PBM to TX1BP3 (pKd) (converted).
[2] abbreviates: holdup affinity of the PBM peptide of the named protein, sheet PBMcomplexome, lower sub-table.
Setting [3] is: holdup affinity of the PBM peptide of the named protein, sheet PBMcomplexome, lower sub-table, 3.5 appears to be the floor for no detectable binding, read-out: affinity of PBM to SCRIB_1 (pKd) (converted).
Where [4] appears, read: holdup affinity of the PBM peptide of the named protein, sheet PBMcomplexome, lower sub-table, 3.5 appears to be the floor for no detectable binding, read-out: affinity of PBM to DLG1_2 (pKd) (converted).
Where [5] appears, read: PBM motif of the named protein vs DLG1_1 PDZ, read-out: pKd values – domain-motif, DLG1_1 (converted).
[6] abbreviates: PBM motif of the named protein vs TX1BP3 PDZ, read-out: pKd values – domain-motif, TX1BP3 (converted).
Where [7] appears, read: PBM motif of the named protein vs SCRIB_2 PDZ, read-out: pKd values – domain-motif, SCRIB_2 (converted).
Where [8] appears, read: PBM motif of the named protein vs SCRIB_1 PDZ, read-out: pKd values – domain-motif, SCRIB_1 (converted).
Setting [9] is: PBM motif of the named protein vs DLG1_2 PDZ, read-out: pKd values – domain-motif, DLG1_2 (converted).

SCRIB_1 PDZ, sequence (Q14160 728-815 limits assumed): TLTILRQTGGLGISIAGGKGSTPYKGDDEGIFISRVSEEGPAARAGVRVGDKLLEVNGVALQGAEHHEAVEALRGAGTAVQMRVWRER

On MAST2 PDZ, `CC(C)C[C@H](NC(=O)[C@H](CC(=O)O)NC(=O)[C@@H]1CCCN1C(=O)[C@@H](NC(=O)CNC(=O)[C@H](CCC(=O)O)NC(=O)[C@H](CO)NC(=O)[C@H](CO)NC(=O)[C@H](CC(N)=O)NC(=O)[C@H](CC(C)C)NC(=O)[C@@H](N)CC(N)=O)C(C)C)C(=O)N[C@@H](CC(C)C)C(=O)N[C@H](C(=O)O)C(C)C` [SARS-CoV-E] gave a Kd of 253 µM.
DDENIRTSDV [PLEKHA2]: the Kd was 158 µM at DLG1_1 PDZ (holdup affinity of the PBM peptide of the named protein, sheet PBMcomplexome, lower sub-table, 3.5 appears to be the floor for no detectable binding, read-out: affinity of PBM to DLG1_1 (pKd) (converted)); 17.8 µM at TX1BP3 PDZ (setting [1]); 178 µM at SCRIB2 PDZ (holdup affinity of the PBM peptide of the named protein, sheet PBMcomplexome, lower sub-table, 3.5 appears to be the floor for no detectable binding, read-out: affinity of PBM to SCRIB_2 (pKd) (converted)); 14.5 µM at SNX27 PDZ (setting [2]); 178 µM on SCRIB_1 PDZ (setting [3]); 34.7 µM at DLG1_2 PDZ (setting [4]).
As to DTKNYKQTSV [CRIPT], the Kd at DLG1_1 PDZ (setting [5]) is 44.7 µM; at TX1BP3 PDZ (setting [6]), 3.98 µM; at SCRIB2 PDZ (setting [7]) it was 24.5 µM; at SNX27 PDZ, 4.68 µM; on SCRIB_1 PDZ (setting [8]), 13.2 µM; at DLG1_2 PDZ (setting [9]), 8.51 µM.
With EKPIDSETKM [SLC1A3], the Kd at SNX27 PDZ (setting [2]) is 6.61 µM.
As for EVVHTPETSV [SLC16A3], the Kd at DLG1_1 PDZ (setting [5]) was 135 µM; on TX1BP3 PDZ (setting [6]) it was 145 µM; on SCRIB2 PDZ (setting [7]) it was 33.1 µM; on SNX27 PDZ it was 7.08 µM; on SCRIB_1 PDZ (setting [8]), 8.32 µM; at DLG1_2 PDZ (setting [9]), 50.1 µM.
FHPLGADSQV [SLC2A1]: the Kd on TX1BP3 PDZ (setting [6]) is 170 µM; at SNX27 PDZ it was 89.1 µM; on SCRIB_1 PDZ (setting [8]), 95.5 µM; at DLG1_2 PDZ (setting [9]) it was 132 µM.
Take KKKKGQYYFV [HtrA2-Opt]: the “pKd, measured in literature” value at Htra2 is 7.7167; at Htra1, 8.42.
For the compound LDSQIQETSI [MAP4], the Kd was 229 µM on DLG1_1 PDZ (setting [5]); 110 µM on TX1BP3 PDZ (setting [6]); 35.5 µM on SCRIB2 PDZ (setting [7]); 1.86 µM at SNX27 PDZ; 2.75 µM at SCRIB_1 PDZ (setting [8]); 42.7 µM on DLG1_2 PDZ (setting [9]).
In turn, PPRQRSETQV [HPV82E6] showed a Kd on SYNJ2BP PDZ of 13.7 µM.
For the compound QGLAERISVL [PRKD2], the Kd on TX1BP3 PDZ (setting [1]) was 41.7 µM; at SNX27 PDZ (setting [2]) it was 16.6 µM; at SCRIB_1 PDZ (setting [3]), 170 µM; on DLG1_2 PDZ (setting [4]), 214 µM.
On to QSARYRDTEL [TJP2 (ZO2)], for which the Kd on DLG1_1 PDZ (setting [5]) is 209 µM; at TX1BP3 PDZ (setting [6]), 17.4 µM; on SCRIB2 PDZ (setting [7]) it was 126 µM; on SNX27 PDZ it was 20.4 µM; on SCRIB_1 PDZ (setting [8]), 34.7 µM; on DLG1_2 PDZ (setting [9]), 170 µM.
For TBCD, in the assay with HEK293T cells (E6 cell line vs control), the “Difference log2 E6/Ctrl” value was 0.5689 and the “Ratio E6/Ctrl” value is given as 1.483. For the same compound, in the assay with HEK293T cells (dPBM cell line vs E6 cell line), the “Difference log2 dPBM/E6” value was -3.03 and the “Ratio dPBM/E6” value was 0.1225. Moreover, in the assay on HEK293T cells (dPBM cell line vs control), the “Difference log2 dPBM/Ctrl” value is on record as -2.461 and the “Ratio dPBM/Ctrl” value came out at 0.1817.
TSQESEDTYL [TBC1D10A]: the Kd on SNX27 PDZ (setting [2]) was 5.37 µM; on SCRIB_1 PDZ (setting [3]), 102 µM.
